The values below come from patent publication US9771325B2, “Tricyclic compounds and preparation thereof” (Council of Scientific & Industrial Research, priority 2014, dated 2017).

As a reminder, the % Inhibition is the relative decrease from the control value, in per cent. As a reminder, the IC50 is the midpoint of a concentration-inhibition curve. As usually defined, the inhibition is the relative decrease from the control value, in per cent.

The test system of series [1] is Breast (MCF-7) cancer cell line. The experiment in a line: SRB assay for anticancer activity, MCF-7. It is filed as cell-based, human. Particulars: for inhibition at 10 µM: Homo sapiens, MCF7, 48 h, read-out: % Inhibition at 10 μM Solution in Cancer Cell Line. As for the experimental part: (§1) SRB Assay Protocol for Anticancer Activity:
(§2) Addition of cells: The human cancer cell lines Ovary (SK-OV-3), Lung (A549) and Breast (MCF-7) maintained in RPMI-1640 medium; Cervical (HeLa), Head & Neck (FaDu) and Colorectal adenocarcinoma (SW620) are maintained in DMEM medium. The enumerated cells are dispensed in a 96-well tissue culture plate. Each well receives 100 μl of the cell suspension containing 10,000-20,000 cells (depending upon the nature of cell line). The cells are then incubated at 37° C. in 5% CO2 concentration for 24 h before addition of the test samples/standard drugs.
(§3) Addition of test samples: 100 μl of working solution of the test sample is added to the cell monolayer to give a final concentration 10 μM (pure compound) For each sample, duplicate wells are included.
(§4) Positive (Drug) and Negative (Vehicle) Controls: In every assay plate both positive and vehicle controls are included. In positive control well, adriamycin (Doxorubicin) is added at 10 μM concentration. In vehicle control wells, DMSO is added. In all assay wells the final concentration of DMSO is 0.1%. The plates are then incubated at 37° C. in 5% CO2 concentration for 48 h.
(§5) Addition of SRB and Colorimetric reading: After 48 h incubation, cells attached to substratum of the plate are fixed by adding cold 50% trichloroacetic acid (TCA, 50 μl/well) on top of the medium and incubated at 4° C. for 1 h. After that the plate is gently washed 5 times with slow running tap water via plastic tubing to remove TCA, culture medium and dead cells. The water stream should not be injected very fast or directly on to the bottom of the wells as this can cause cell monolayer to detach. After washing, the plates are allowed to dry in air (plates can be stored for long periods at room temperature after fixing and drying step) […], 50 μl/well of SRB solution is added and left at room temperature for 30 min. At the end of the staining period, unbound SRB is removed by quickly rinsing plates 4-5 times with 1% (v/v) acetic acid. Plates are allowed to air-dry at room temperature (Stained and dried plates can be stored indefinitely at room temperature). 150 μl of 10 mM Tris base solution is added to each well and plate is shaken for 15 min on a gyratory shaker to solubilize the protein-bound dye. Alternatively, if a shaker is unavailable, SRB gets solubilized after 30 min in Tris base solution. Absorbance is measured at 510 nm in a microplate spectrophotometer.
(§6) Percentage of cell growth inhibition in presence of the test sample is calculated as follows: […]
(In SRB staining, fixed cells bind dye roughly in proportion to their protein.)

Series [2] relates to Breast MDA-MB-231 cancer cell line. Kind of series: SRB assay for anticancer activity, MDA-MB-231. It is filed as cell-based, human. To be noted: 48 h; for inhibition at 10 µM: Homo sapiens, read-out: % Inhibition at 10 μM Solution in Cancer Cell Line.
The subject of series [3] is Colon DLD-1 cancer cell line. Kind of series: SRB assay for anticancer activity, DLD-1. Format: cell-based, human. To be noted: 48 h; for inhibition at 10 µM: Homo sapiens, read-out: % Inhibition at 10 μM Solution in Cancer Cell Line.
The test system of series [4] is Colorectal adenocarcinoma (SW620) cell line. Kind of series: SRB assay for anticancer activity, SW620. It is filed as cell-based, human. To be noted: for inhibition at 10 µM: Homo sapiens, SW-620, Colon SW620, 48 h, read-out: % Inhibition at 10 μM Solution in Cancer Cell Line. The procedure: as §1, §2, §3, §4, §5, §6
The subject of series [5] is Colon COLO205 cancer cell line. The experiment in a line: SRB assay for anticancer activity, COLO205. Particulars: for inhibition at 10 µM: Homo sapiens, COLO 205, 48 h, read-out: % Inhibition at 10 μM Solution in Cancer Cell Line. Format: cell-based, human.
Series [6] relates to Cervical (HeLa) cancer cell line. The experiment in a line: SRB assay for anticancer activity, HeLa. Format: cell-based, human. To be noted: 48 h; for inhibition at 10 µM: Homo sapiens, read-out: % Inhibition at 10 μM Solution in Cancer Cell Line. The procedure: as §1, §2, §3, §4, §5, §6
In series [7] the test system is cervical C-33A cancer cell line. The experiment in a line: SRB assay for anticancer activity, C-33A. Format: cell-based, human. Particulars: 48 h; for inhibition at 10 µM: Homo sapiens, read-out: % Inhibition at 10 μM Solution in Cancer Cell Line.
Series [8] relates to Head & Neck (FaDu) cancer cell line. The experiment in a line: SRB assay for anticancer activity, FaDu. Format: cell-based, human. To be noted: 48 h; for inhibition at 10 µM: Homo sapiens, read-out: % Inhibition at 10 μM Solution in Cancer Cell Line. As for the experimental part: as §1, §2, §3, §4, §5, §6
In series [9] the test system is Head & Neck KB cancer cell line. The experiment in a line: SRB assay for anticancer activity, KB. It is filed as cell-based, human. Particulars: 48 h; for inhibition at 10 µM: Homo sapiens, read-out: % Inhibition at 10 μM Solution in Cancer Cell Line.
Series [10] relates to Lung (A549) cancer cell line. The experiment in a line: SRB assay for anticancer activity, A549. It is filed as cell-based, human. To be noted: 48 h; for inhibition at 10 µM: Homo sapiens, read-out: % Inhibition at 10 μM Solution in Cancer Cell Line. The procedure: as §1, §2, §3, §4, §5, §6
Series [11] concerns Lung NCI-H358 cancer cell line. The experiment in a line: SRB assay for anticancer activity, NCI-H358. Format: cell-based, human. To be noted: 48 h; for inhibition at 10 µM: Homo sapiens, read-out: % Inhibition at 10 μM Solution in Cancer Cell Line.
In series [12] the test system is Lung NCI-H446 cancer cell line. The experiment in a line: SRB assay for anticancer activity, NCI-H446. It is filed as cell-based, human. Particulars: 48 h; for inhibition at 10 µM: Homo sapiens, read-out: % Inhibition at 10 μM Solution in Cancer Cell Line.
Series [13] relates to Ovary (SK-OV-3) cancer cell line. Kind of series: SRB assay for anticancer activity, SK-OV-3. It is filed as cell-based, human. Particulars: for inhibition at 10 µM: Homo sapiens, SK-OV-3, Ovary SKOV3, 48 h, read-out: % Inhibition at 10 μM Solution in Cancer Cell Line. As for the experimental part: as §1, §2, §3, §4, §5, §6
Series [14] deals with Ovary NIH:OVACR-3 cancer cell line. Kind of series: SRB assay for anticancer activity, NIH:OVACR-3. Particulars: 48 h; for inhibition at 10 µM: Homo sapiens, read-out: % Inhibition at 10 μM Solution in Cancer Cell Line. It is filed as cell-based, human.
Series [15] concerns Ovary PA1 cancer cell line. Kind of series: SRB assay for anticancer activity, PA1. It is filed as cell-based, human. To be noted: 48 h; for inhibition at 10 µM: Homo sapiens, read-out: % Inhibition at 10 μM Solution in Cancer Cell Line.
Series [16] relates to KB cells. To be noted: Chinese Chemical Letters 2013, 24, 57-58, read-out: cytotoxicity against KB cells in vitro, IC50; cited from earlier work.

For the compound “8-Hydroxy-4,7,7-trimethyl-7,8-dihydrocyclopenta[e]isoindole-1,3(2H,6H)-dione [Compound 8]”, the “% Inhibition at 10 μM Solution in Cancer Cell Line” value (from here on “% Inhibition at 10 μM Solution”) is 4.31% in series [1] (48 h); 0.00% in [2]; 0.00% in series [3]; −11.48% in series [4] (Colon SW620, 48 h); 0.00% in [5] (48 h); 29.05% in series [6]. In addition, the “% Inhibition at 10 μM Solution” value in [7] stood at 0.00%; in [8], 2.10%; in [9], 0.00%; in series [10], 6.05%; in [11], 0.00%; in series [12], 0.00%. Moreover, the “% Inhibition at 10 μM Solution” value is 5.55% in series [13] (Ovary SKOV3, 48 h); 0.00% in series [14]; 0.00% in [15].
Turning to `Cc1cc2c(c3c1C(=O)NC3=O)C(O)C(C)(C)C2` (stereo not shown) [Compound 1], in [16], the IC50 was 16.6 µM.
On to `CCOC(=O)C1(C(=O)OCC)Cc2ccc3c(c2C1)C(=O)NC3=O` [Compound 18, Diethyl 1,3-dioxo-2,3,6,8-tetrahydrocyclopenta[e]isoindole-7,7(1H)-dicarboxylate], for which the inhibition at 10 µM in series [1] is 6.84%; in series [2], 0%; in [3] it was 0%; in series [4], 13.2%; in series [5], 0%; in [6], 20.9%. The inhibition at 10 µM in [7] was 0%; in series [8], -0.05%; in series [9], 0%; in [10], 28.8%; in [11] it was 0%; in series [12], 0%. The inhibition at 10 µM in series [13] was -1.46%; in series [14] it was 0%; in series [15] it was 0%.
As for `CCOC(=O)C1(C(=O)OCC)Cc2ccc3c(c2C1)C(=O)N(CCO)C3=O` [Compound 19, Diethyl 2-(2-hydroxyethyl)-1,3-dioxo-2,3,6,8-tetrahydrocyclopenta[e]isoindole-7,7(1H)-dicarboxylate], the inhibition at 10 µM in [1] worked out at 3.44%; in series [2], 0%; in series [3], 0%; in series [4], 15.2%; in series [5], 0%; in [6], 25.7%. For the same compound, the inhibition at 10 µM in [7] was found to be 0%; in series [8] it was 0.16%; in [9] it was 0%; in series [10], 29%; in series [11], 0%; in series [12], 0%. The inhibition at 10 µM in series [13] was -3.91%; in series [14], 0%; in series [15], 0%.
Consider `CCOC(=O)C1(C(=O)OCC)Cc2cc(C)c3c(c2C1)C(=O)NC3=O` [Compound 22, Diethyl 4-methyl-1,3-dioxo-2,3,6,8-tetrahydrocyclopenta[e]isoindole-7,7(1H)-dicarboxylate], for which the inhibition at 10 µM in [1] turned out to be 10.4%; in [2], 0%; in series [3], 0%; in series [4], 15.4%; in series [5], 0%; in series [6], 34.3%. Besides, the inhibition at 10 µM came out at 0% in series [7]; 10.3% in series [8]; 0% in series [9]; 27% in [10]; 0% in [11]; 0% in [12]. Also, the inhibition at 10 µM in series [13] was -9.36%; in series [14] it was 0%; in series [15], 0%.
Take `CCOC(=O)C1(C(=O)OCC)Cc2cc(C)c3c(c2C1)C(=O)N(CCO)C3=O` [Compound 23, Diethyl 2-(2-hydroxyethyl)-4-methyl-1,3-dioxo-2,3,6,8-tetrahydrocyclopenta[e]isoindole-7,7(1H)-dicarboxylate]: the inhibition at 10 µM is 8.24% in series [1]; 0% in [2]; 0% in series [3]; 13.3% in series [4]; 0% in [5]; 31% in series [6]. In addition, the inhibition at 10 µM came out at 0% in series [7]; 11% in series [8]; 0% in series [9]; 19.2% in series [10]; 0% in [11]; 0% in series [12]. In addition, the inhibition at 10 µM is -7.23% in series [13], 0% in [14] and 0% in series [15].
For the compound `CCOC(=O)C1(C(=O)OCC)Cc2cc(C)c3c(c2C1)C(=O)N(S(=O)(=O)c1ccc(F)cc1)C3=O` [Compound 24, Diethyl 2-((4-fluorophenyl)sulfonyl)-4-methyl-1,3-dioxo-2,3,6,8-tetrahydrocyclopenta[e]isoindole-7,7(1H)-dicarboxylate], the inhibition at 10 µM in series [1] was found to be 34.9%; in series [2], 0%; in series [3], 0%; in series [4], 50.5%; in series [5], 0%; in series [6], 65.2%. Moreover, the inhibition at 10 µM in series [7] was found to be 0%; in series [8], 59.4%; in series [9], 0%; in [10], 48.2%; in series [11] it was 0%; in series [12] it was 0%. In addition, the inhibition at 10 µM in series [13] was found to be 21.2%; in series [14] it was 0%; in series [15], 0%.
Regarding `COc1cccc2c1C(=O)c1c(O)c3c(c(O)c1C2=O)C[C@@](O)(C(=O)CO)C[C@@H]3O[C@H]1C[C@H](N)[C@H](O)[C@H](C)O1` [Doxorubicin, reference compound], the inhibition at 10 µM in series [1] was 66.7%; in [2], 0%; in series [3], 0%; in series [4], 80.3%; in series [5] it was 0%; in [6] it was 89.5%. For the same compound, the inhibition at 10 µM in series [7] was found to be 0%; in series [8], 89.6%; in series [9] it was 0%; in series [10], 69.1%; in series [11] it was 0%; in series [12], 0%. Also, the inhibition at 10 µM in series [13] turned out to be 58%; in series [14] it was 0%; in series [15], 0%.
